This is an account of results in ChEMBL document CHEMBL1135289, “Anthranilate sulfonamide hydroxamate TACE inhibitors. Part 2: SAR of the acetylenic P1' group” (Bioorg Med Chem Lett, 2002).

The subject of assay [1] is THP-1. As to the kind of experiment: Inhibition of LPS-stimulated TNF-alpha production in THP-1 cells at a concentration of 3 uM. It is filed as functional. Particulars: Homo sapiens.
Assay [2] has as its target T1, Matrix metalloproteinase-9 (Homo sapiens, UniProt P14780). The experiment in a line: Inhibition of Matrix metalloprotease-9 activity.
Assay [3] deals with Disintegrin and metalloproteinase domain-containing protein 17 (Homo sapiens, UniProt P78536). The experiment in a line: Inhibition of Tumor necrosis factor alpha converting enzyme.
Assay [4] deals with T2, Collagenase 3 (Homo sapiens, UniProt P45452). The experiment in a line: Inhibition of Matrix metalloprotease-13 activity.
The next assay has as its target T3, Interstitial collagenase (Homo sapiens, UniProt P03956).
T3 sequence (P03956 whole entry): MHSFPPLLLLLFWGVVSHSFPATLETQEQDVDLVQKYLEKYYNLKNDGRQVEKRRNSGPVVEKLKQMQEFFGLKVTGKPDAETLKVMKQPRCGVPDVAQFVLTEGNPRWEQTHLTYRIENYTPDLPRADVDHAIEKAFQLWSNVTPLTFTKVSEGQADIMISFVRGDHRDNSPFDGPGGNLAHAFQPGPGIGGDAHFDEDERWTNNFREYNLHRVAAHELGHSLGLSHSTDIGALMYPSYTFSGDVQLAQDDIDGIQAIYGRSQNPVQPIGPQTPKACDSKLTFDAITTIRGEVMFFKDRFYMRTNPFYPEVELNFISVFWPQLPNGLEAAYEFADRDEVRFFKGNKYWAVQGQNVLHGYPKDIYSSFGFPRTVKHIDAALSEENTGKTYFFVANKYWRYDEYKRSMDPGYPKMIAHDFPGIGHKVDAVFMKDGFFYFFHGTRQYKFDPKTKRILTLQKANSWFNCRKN
The experiment in a line: Inhibition of Matrix metalloprotease-1.

Assay [5] concerns the target T4, Interstitial collagenase (Homo sapiens) (UniProt P03956).
T4 sequence (whole entry): T3 sequence (P03956 whole entry)
The experiment in a line: Inhibition of Matrix metalloprotease-1 at 10 uM.

In assay [6] the target is T1, Matrix metalloproteinase-9. As to the kind of experiment: Inhibition of Matrix metalloprotease-9 at 1 uM.
Assay [7] concerns the target T2, Collagenase 3. The experiment in a line: Inhibition of Matrix metalloprotease-13 at 1 uM.
The target in assay [8] is T2, Collagenase 3. The experiment in a line: Inhibition of Matrix metalloprotease-13 at 10 uM.
The subject of assay [9] is THP-1. The experiment in a line: Compound was evaluated for its ability to inhibit LPS-stimulated TNF-alpha production in THP-1 cells at a concentration of 1 uM. To be noted: Homo sapiens. It is filed as functional.
Assay [10] deals with T2, Collagenase 3. The experiment in a line: Inhibition of Matrix metalloprotease-13.
In assay [11] the target is T1, Matrix metalloproteinase-9. As to the kind of experiment: Inhibition of Matrix metalloprotease-9 at 10 uM.
Assay [12] has as its system THP-1. As to the kind of experiment: Compound was evaluated for its ability to inhibit […] production using THP-1 cellular assay at a concentration of 1 uM. It is filed as functional. To be noted: Homo sapiens.

Molecules are shown by their SMILES.

T1 sequence (P14780 whole entry, the tested form may be a part): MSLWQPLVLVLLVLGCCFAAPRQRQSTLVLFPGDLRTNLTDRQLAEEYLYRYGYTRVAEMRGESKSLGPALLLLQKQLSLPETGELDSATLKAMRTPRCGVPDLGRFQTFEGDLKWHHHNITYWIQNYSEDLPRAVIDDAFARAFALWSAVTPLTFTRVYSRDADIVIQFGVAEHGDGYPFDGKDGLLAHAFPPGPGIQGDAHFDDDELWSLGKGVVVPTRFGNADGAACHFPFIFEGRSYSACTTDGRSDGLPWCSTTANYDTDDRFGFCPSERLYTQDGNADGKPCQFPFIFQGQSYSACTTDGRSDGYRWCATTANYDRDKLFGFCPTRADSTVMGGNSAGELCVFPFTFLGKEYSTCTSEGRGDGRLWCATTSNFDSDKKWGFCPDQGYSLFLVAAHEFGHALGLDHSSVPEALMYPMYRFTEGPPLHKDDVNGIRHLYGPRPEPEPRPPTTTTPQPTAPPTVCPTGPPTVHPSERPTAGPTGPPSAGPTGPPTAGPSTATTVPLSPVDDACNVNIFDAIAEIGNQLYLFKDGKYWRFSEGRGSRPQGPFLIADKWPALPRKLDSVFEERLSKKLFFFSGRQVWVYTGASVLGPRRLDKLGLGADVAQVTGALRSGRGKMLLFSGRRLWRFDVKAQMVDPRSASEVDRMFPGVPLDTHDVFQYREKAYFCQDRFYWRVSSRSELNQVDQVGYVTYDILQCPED
Disintegrin and metalloproteinase domain-containing protein 17, sequence (P78536 whole entry, the tested form may be a part): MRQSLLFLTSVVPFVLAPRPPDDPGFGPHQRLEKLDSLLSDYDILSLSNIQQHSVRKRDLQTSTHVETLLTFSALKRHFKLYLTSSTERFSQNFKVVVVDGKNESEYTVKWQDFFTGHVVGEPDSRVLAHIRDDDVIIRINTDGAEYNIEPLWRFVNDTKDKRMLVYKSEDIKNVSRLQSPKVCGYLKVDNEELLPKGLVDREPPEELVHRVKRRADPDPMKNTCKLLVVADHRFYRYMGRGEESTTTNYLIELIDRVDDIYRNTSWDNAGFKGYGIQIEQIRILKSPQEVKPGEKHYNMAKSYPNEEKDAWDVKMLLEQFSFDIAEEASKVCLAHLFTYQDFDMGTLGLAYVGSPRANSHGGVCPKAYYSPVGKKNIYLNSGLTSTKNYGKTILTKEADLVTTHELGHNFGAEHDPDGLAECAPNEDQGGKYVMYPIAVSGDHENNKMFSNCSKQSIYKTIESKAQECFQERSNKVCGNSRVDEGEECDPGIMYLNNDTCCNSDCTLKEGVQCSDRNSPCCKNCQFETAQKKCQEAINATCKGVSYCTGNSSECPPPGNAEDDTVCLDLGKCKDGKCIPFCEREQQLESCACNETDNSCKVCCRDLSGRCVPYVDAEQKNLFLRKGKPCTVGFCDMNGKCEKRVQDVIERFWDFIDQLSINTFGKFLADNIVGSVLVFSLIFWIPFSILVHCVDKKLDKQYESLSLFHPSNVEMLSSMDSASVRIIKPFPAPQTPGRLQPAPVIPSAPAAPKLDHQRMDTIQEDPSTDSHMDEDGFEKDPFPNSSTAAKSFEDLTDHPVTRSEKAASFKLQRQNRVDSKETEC

Regarding `CC#CCOc1ccc(S(=O)(=O)N(C)c2c(C(=O)NO)cc(-c3ccccc3)cc2C2CCN(C)CC2)cc1`, at 3 µM the inhibition with THP-1 [1] was 95%. Besides, the IC50 (as a rule, the midpoint of a concentration-inhibition curve) came out at 28 nM in assay [2], 42 nM in assay [3], 47 nM against Collagenase 3 [4] and 1920 nM against Interstitial collagenase.

Take `Cc1cc(Br)cc(C(=O)NO)c1N(C)S(=O)(=O)c1ccc(OCc2cccnc2)cc1`: the inhibition – broadly, the share of the control response that was lost under treatment – in assay [5] came to 42%; in assay [6] it was 28%; against Collagenase 3 [7] it was 48%. In the assay with THP-1 [1], this compound registered an inhibition at 3 µM of 9%. The same compound gave an IC50 in assay [3] of 28 nM.

As for `CNCC#CCOc1ccc(S(=O)(=O)N(C)c2c(C)cc(Br)cc2C(=O)NO)cc1`, the inhibition in assay [5] turned out to be 26%.

For the compound `CCCCOc1ccc(S(=O)(=O)N(C)c2c(C)cc(Br)cc2C(=O)NO)cc1`, the inhibition at 3 µM in the assay with THP-1 [1] stood at 0%. Further, in assay [3], half-maximal inhibition (IC50) required 67 nM.

Take `CC#CCOc1ccc(S(=O)(=O)Nc2c(C)cccc2C(=O)NO)cc1`: the values for the inhibition (in [5]; at Collagenase 3 [8]) were 6% and 42%, respectively. This compound also gave an inhibition at 3 µM with THP-1 [1] of 7%. Moreover, in assay [3], the concentration for half-maximal inhibition (IC50) was 84 nM.

In turn, `COc1ccc(S(=O)(=O)N(C)c2c(C(=O)NO)cc(Br)cc2C2CCN(C)CC2)cc1` gave an inhibition at 3 µM in the assay on THP-1 [1] of 42%. Moreover, the IC50 in assay [2] is 2 nM; in assay [3], 26 nM; on Collagenase 3 [4] it was 5 nM; on Interstitial collagenase it was 194 nM.

As to `Cc1cc(Br)cc(C(=O)NO)c1N(C)S(=O)(=O)c1ccc(OCC#CCNCCCN(C)C)cc1`, the inhibition in assay [5] was determined as 32%.

For `Cc1cc(Br)cc(C(=O)NO)c1N(C)S(=O)(=O)c1ccc(OCC#CCO)cc1`, testing at 1 µM in the assay on THP-1 [9] gave an inhibition of 69%.

Regarding `CC#CCOc1ccc(S(=O)(=O)N(C)c2c(C(=O)NO)cc(Br)cc2C2CCN(C)CC2)cc1`, the IC50 against Collagenase 3 [10] was 252 nM; in assay [2] it was 166 nM; in [3], 25 nM. The compound further showed an inhibition at 3 µM in the assay with THP-1 [1] of 94%.

In the case of `CC#CCOc1ccc(S(=O)(=O)N(C)c2ccccc2C(=O)NO)cc1`, the inhibition turned out to be 35% in [5] and 61% in [11]. Besides, testing at 3 µM in the assay with THP-1 [1] gave an inhibition of 32%. This compound yielded a 50% inhibitory concentration (IC50) in assay [3] of 27 nM.

Compound `CCN(CC)CC#CCOc1ccc(S(=O)(=O)N(C)c2c(C)cc(Br)cc2C(=O)NO)cc1` yielded an inhibition in [5] of 21%.

In turn, `CC#CCOc1ccc(S(=O)(=O)N(C)c2c(C)cc(Br)cc2C(=O)NO)cc1` gave an inhibition at 1 µM in the assay with THP-1 [12] of 59%.

In assay [5], `CC#CCOc1ccc(S(=O)(=O)N(C)c2c(C)cccc2C(=O)NO)cc1` came in with an inhibition of 85%. This compound had an inhibition at 3 µM in the assay on THP-1 [1] of 55%. For the same compound, the concentration for half-maximal inhibition (IC50) in assay [3] stood at 28 nM; against Collagenase 3 [4], 416 nM.
